# Data reported in US10709653B2, “Cosmetic compositions comprising spiculisporic acid and at least one sulfate and/or sulfonate surfactant” (L'OREAL, priority 2013, dated 2020).
# Read-outs that look alike come from different tables or passages of the source.
# Assays:
# [1] = cited from earlier work
# [2] = Aspect and pH on storage of S-acid solutions salified with KOH, Arg or TEA with sulfate or sulfonate surfactant (Example 3); format: physicochemical; design: key to Aspect (macroscopic observation) 15 days 4° C. / Aspect (macroscopic observation) 15 days RT: *: showed a precipitate; conditions: S-acid 4.00% MA
# Description: The compositions of Table 3 above were prepared according to the following operating procedure:
# Phase A was heated to 40° C. After solubilization of the S-acid, the phase B was added to the Phase A. Next, the phase C was added after phase B.
# A portion of the solution was stored at room temperature and the other one at 4° C.
# [3] = Aspect and pH on storage of spiculisporic acid solutions pre-solubilized with KOH, alone or with surfactants (Example 2); format: physicochemical
# Source text: Solutions containing the S-acid at 4% or 8% (neutralized with an amount of KOH calculated so as to obtain the di-potassium salt of S-acid, i.e. R1=2) and surfactants, were made.
# [4] = sulfate surfactant 4.00% MA, base Arg, R 1.10
# [5] = sulfate surfactant 4.00% MA, base Arg, R 1.25
# [6] = sulfate surfactant 4.00% MA, base Arg, R 1.75
# [7] = sulfate surfactant 4.00% MA, base Arg, R 2.00
# [8] = sulfate surfactant 4.00% MA, base KOH, R 2.00
# [9] = sulfate surfactant 4.00% MA, base TEA, R 1.10
# [10] = sulfate surfactant 4.00% MA, base TEA, R 1.25
# [11] = sulfate surfactant 4.00% MA, base TEA, R 1.75
# [12] = sulfate surfactant 4.00% MA, base TEA, R 2.00
# [13] = sulfonate surfactant 4.00% MA, base Arg, R 1.10
# [14] = sulfonate surfactant 4.00% MA, base Arg, R 1.25
# [15] = sulfonate surfactant 4.00% MA, base Arg, R 1.75
# [16] = sulfonate surfactant 4.00% MA, base Arg, R 2.00
# [17] = sulfonate surfactant 4.00% MA, base KOH, R 2.00
# [18] = sulfonate surfactant 4.00% MA, base TEA, R 1.10
# [19] = sulfonate surfactant 4.00% MA, base TEA, R 1.25
# [20] = sulfonate surfactant 4.00% MA, base TEA, R 1.75
# [21] = sulfonate surfactant 4.00% MA, base TEA, R 2.00
# [22] = S-acid 4% MA, KOH (R=2), named surfactant 4% if any
smiles,measurement,setting,value
"CCCCCCCCCCC(C(=O)O)C1(C(=O)O)CCC(=O)O1 (stereo not drawn) [S-acid, 4,5-dicarboxy-4-pentadecanolide]",Solubility in water,[1]; high temperature,partly soluble
same,Solubility in ethanol,[1]; room temperature,soluble
same,Solubility in fats,[1]; room temperature,insoluble
same,Solubility in water,[1]; room temperature,insoluble
same,pH 15 days 4° C.,[2]; [4],5.19
same,pH 15 days RT,[2]; [4],5.11
same,pH 15 days 4° C.,[2]; [5],5.33
same,pH 15 days RT,[2]; [5],5.34
same,pH 15 days 4° C.,[2]; [6],5.93
same,pH 15 days RT,[2]; [6],5.95
same,pH 15 days 4° C.,[2]; [7],6.25
same,pH 15 days RT,[2]; [7],6.21
same,Aspect (macroscopic observation) 15 days 4° C.,[2]; [8],*
same,Aspect (macroscopic observation) 15 days RT,[2]; [8],*
same,pH 15 days 4° C.,[2]; [8],6.24
same,pH 15 days RT,[2]; [8],6.33
same,pH 15 days 4° C.,[2]; [9],5.26
same,pH 15 days RT,[2]; [9],5.19
same,pH 15 days 4° C.,[2]; [10],5.38
same,pH 15 days RT,[2]; [10],5.39
same,pH 15 days 4° C.,[2]; [11],6.02
same,pH 15 days RT,[2]; [11],5.98
same,pH 15 days 4° C.,[2]; [12],6.32
same,pH 15 days RT,[2]; [12],6.32
same,pH 15 days 4° C.,[2]; [13],5.07
same,pH 15 days RT,[2]; [13],5.00
same,pH 15 days 4° C.,[2]; [14],5.28
same,pH 15 days RT,[2]; [14],5.27
same,pH 15 days 4° C.,[2]; [15],5.89
same,pH 15 days RT,[2]; [15],5.93
same,pH 15 days 4° C.,[2]; [16],6.19
same,pH 15 days RT,[2]; [16],6.18
same,Aspect (macroscopic observation) 15 days 4° C.,[2]; [17],*
same,pH 15 days 4° C.,[2]; [17],6.34
same,pH 15 days RT,[2]; [17],6.43
same,pH 15 days 4° C.,[2]; [18],5.22
same,pH 15 days RT,[2]; [18],5.17
same,pH 15 days 4° C.,[2]; [19],5.37
same,pH 15 days RT,[2]; [19],5.33
same,pH 15 days 4° C.,[2]; [20],5.96
same,pH 15 days RT,[2]; [20],5.97
same,pH 15 days 4° C.,[2]; [21],6.34
same,pH 15 days RT,[2]; [21],6.33
same,pH t0 RT,"[3]; S-acid 4% MA, KOH (R=2), named surfactant 4% active material if any",5.97
same,pH 20 days after storage T = 4° C.,[3]; [22],6.01
same,pH 20 days after storage RT,[3]; [22],6.02
same,Aspect after 20 days of storage at 4° C.,"[3]; S-acid 4%, KOH (R=2), surfactant 4% if any",precipitation
same,pH 20 days after storage T = 4° C.,"[3]; S-acid 8% MA, KOH (R=2)",6.47
same,pH 20 days after storage RT,"[3]; S-acid 8% MA, KOH (R=2)",6.47
same,pH t0 RT,"[3]; S-acid 8% MA, neutralized with KOH (R=2)",6.43
same,Aspect after 20 days of storage at 4° C.,"[3]; S-acid 8%, KOH (R=2)",precipitation
